Here are results for 3 compounds from patent publication US11072583B2, “Indole (sulfomyl) n-hydroxy benzamide derivatives as selective HDAC inhibitors” (COUNCIL OF SCIENTIFIC & INDUSTRIAL RESEARCH, priority 2017, dated 2021).

pIC50: −log10 of the molar value. Like-named read-outs stand apart in the source and are kept apart here.

What all share (type): cell-based, human
Assay [1] concerns SKOV3 (Ovarian cancer cells). Nature of the assay: Anti-proliferative assay, SKOV3.
For assay [2], the system named is HeLa (Cervical cancer cell line). The experiment in a line: Anti-proliferative assay (Cell Titer-Glo), HeLa.
Assay [3] relates to DU-145 (Prostate cancer cell line). Nature of the assay: Anti-proliferative assay (Cell Titer-Glo), DU-145. On the procedure:
Cell culture & Reagents: All cell lines, used for the anti-proliferative screen, were obtained from American Type Culture Collection (ATCC). HeLa (Cervical cancer cell line), MCF-7 (Breast cancer cell line) and DU-145 (Prostate cancer cell line) were cultured in Dulbecco's modified Eagle's medium (DMEM, GIBCO), containing 10% fetal bovine serum (FBS; Life Technologies), penicillin and streptomycin (10,000 U/mL), at 37° C. and in 5% CO2. Cell Titer-Glo® Luminescent Cell Viability Assay kit (Cat No. G7573) was purchased from Promega to determine the number of viable cells in culture based on quantitation of the ATP present, which signals the presence of metabolically active cells.
Anti-Proliferative assay: For anti-proliferative screening, 2500 cells per well (For HeLa and DU-145 cell lines) and 5000 cells per well (for MCF-7 cell line) numbers of cells were seeded in a white opaque plate and incubated for 24 Hrs in 5% CO2 incubator at 37° C. After 24 Hrs, compound dilutions were prepared as per the required concentrations in cell culture medium (DMEM) and diluted compounds were added and incubated with cells for 72 Hrs at 37° C. in 5% CO2 incubator in the same 96 well-plate. After 72 Hrs, Cell Titer-Glo® reagent vial was reconstituted with 100 mL of Cell Titer Glo buffer and 100 μL of prepared reagent was added to each well. After incubating at room temperature for 30 minutes, luminescence was captured using luminescence plate reader (EnVision® Multilabel Plate Reader from Perkin Elmer). Generated data was exported to the excel file and data was analyzed using Graph Pad Prism to calculate IC50 value of the unknown inhibitor.
Compounds were screened against different cancer cell lines [HeLa, DU-145, MCF-7 and SKOV3] for anti-proliferative activity using luminescence based cell proliferation assay using Promega Glo kit are shown in FIG. 3.
(In general: In ATP-based viability assays light output follows the ATP content of the culture.)

Assay [4] deals with MCF-7 (Breast cancer cell line). Nature of the assay: Anti-proliferative assay (Cell Titer-Glo), MCF-7.
The mark [5] stands for this setting: Table 1, reference compounds, read-out: IC50 DU-145 cells.

As for `CC(/C=C/C(=O)NO)=C\[C@@H](C)C(=O)c1ccc(N(C)C)cc1` [TSA, Trichostatin A], the pIC50 was 6.62 in assay [1] (Table 1, reference compounds, read-out: IC50 SKOV3 cells); 6.91 in assay [2] (Table 1, reference compounds, read-out: IC50 HeLa cells); 6.27 in assay [3] (setting [5]); 6.82 in assay [4] (Table 1, reference compounds, read-out: IC50 MCF-7 cells).

For the compound `COc1ccc(C[C@H](N)C(=O)N[C@H]2[C@@H](O)[C@H](n3cnc4c(N(C)C)ncnc43)O[C@@H]2CO)cc1` [Puromycin], the pIC50 in assay [1] (Homo sapiens, SK-OV-3, Table 1, reference compounds, read-out: IC50 SKOV3 cells) is 6.53; in assay [1] (Homo sapiens, SK-OV-3, Table 2, reference compounds section, read-out: SKOV3 IC50) it was 6.53; in assay [2] (Homo sapiens, HeLa, Table 1, reference compounds, read-out: IC50 HeLa cells), 6.21; in assay [2] (Homo sapiens, HeLa, Table 2, reference compounds section, read-out: HeLa IC50) it was 6.41; in assay [3] (Homo sapiens, DU-145, Table 1, reference compounds, read-out: IC50 DU-145 cells), 6.01; in assay [3] (Homo sapiens, DU-145, Table 2, reference compounds section, read-out: DU-145 IC50), 6.42. Further, the pIC50 in assay [4] (Homo sapiens, MCF7, Table 1, reference compounds, read-out: IC50 MCF-7 cells) was 6.39; in assay [4] (Homo sapiens, MCF7, Table 2, reference compounds section, read-out: MCF-7 IC50), 6.60.

As to `O=C(CCCCCCC(=O)Nc1ccccc1)NO` [SAHA], the pIC50 in assay [3] (setting [5]) is 6.10.

One may read the pIC50 as −log10 of the IC50, conventionally taken in molar units.
